Results as given in patent publication US20190085207A1, “POLISHING COMPOSITION FOR OBJECT TO BE POLISHED HAVING METAL-CONTAINING LAYER” (FUJIMI INCORPORATED, priority 2016, published 2019).

Assay: Acid dissociation constant (pKa) of the acid
Source text: In this specification, the acid dissociation constant (pKa) of the acid is an index of acidity, and a common logarithm is employed as a reciprocal of the dissociation constant (Ka) of acid. That is, the acid dissociation constant (pKa) of the acid is obtained by measuring the dissociation constant Ka=[H3O^+] [B^−]/[BH] under a dilute aqueous solution condition and using a formula: pKa=−log Ka Incidentally, in the above formula, BH represents an organic acid and B^− represents a conjugate base of an organic acid. The measurement method of pKa is as follows: a hydrogen ion concentration is measured using a pH meter and pKa can be calculated from the concentration of the substance and the hydrogen ion concentration. Incidentally, in the case of polybasic acid, the pKa is a value calculated for the first Ka (pKa1).

| pKa (dilute aqueous solution) | Structure (SMILES) | pKa |
| --- | --- | --- |
| 3.4 | O=C(O)C(O)CO (centres unmarked) [Glyceric acid] | – |
| – | O=C(O)CC(O)C(=O)O (centres unmarked) [Malic acid] | 3.4 |
| 4.6 | CCCCC(=O)O [Valeric acid] | – |
| – | CC(C)CC(O)C(=O)O (centres unmarked) [Leucine acid] | 3.9 |
| 4.37 | CC(C)(O)C(=O)O [2-Hydroxyisobutyric acid] | – |
